Data from US8883782B2, “Spiro-tetracyclic ring compounds as beta-secretase modulators and methods of use” (Amgen Inc., priority 2010, dated 2014).
Where two headings read alike, the source gives them in different places.

Tests used:
[1] = test system: Aβ40 in conditioned medium of cells stably expressing Amyloid Precursor Protein (APP); assay: In vitro BACE cell-based assay (Aβ40 in conditioned medium, sandwich ELISA); conditions: read-out: HEK cell assay
In short: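 Step two: 10-point compound titration added, starting 100 μM or 10 μM, 0.1% DMSO. Step three: medium Aβ40 measured by ELISA, capture 3 h and detection 2 h at 4° C, TRF read.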

[2] = test system: Abeta 40 in cerebrospinal fluid (CSF) and brain; assay: In vivo inhibition of beta-secretase (Abeta 40 reduction in CSF and brain); conditions: rat, after 4 hrs; for inhibition in vivo at 10 mg/kg: Abeta 40, 10 mg/kg (10 mpk); for inhibition in vivo at 3 mg/kg: Abeta 40, 3 mpk
Description: In Vivo Inhibition of Beta-Secretase
Several animal models, including mouse, rat, dog, and monkey, may be used to screen for inhibition of beta-secretase activity in vivo following administration of a test compound sample. Animals used in this invention can be wild type, transgenic, or gene knockout animals. […] A separate group of animals receive 2% hydroxypropyl methylcellulose, 1% Tween80 alone, containing no test compound, and serve as a vehicle-control group. At the end of the test period, animals are sacrificed and brain tissues, plasma or cerebrospinal fluid are collected. […] Homogenates are centrifuged at 355,000 g, 4° C. for 30 minutes. CSF or brain supernatants are then analyzed for the presence of A-beta peptide by specific sandwich ELISA assays based on ECL (Electrochemiluminescence) technology. For example, rat Abeta40 is measured using biotinylated-4G8 (Signet) as a capture antibody and Fab40 (an in-house antibody specific to the C-terminal of Abeta40) as a detection antibody.
Actual vehicles used: Oral: 2% HPMC, 1% Tween80, pH 2.2

[3] = biological target: Beta Secretase enzyme (BACE) (Homo sapiens, UniProt P56817); assay: In vitro enzymatic BACE FRET (fluorescence resonance energy transfer) assay; format: biochemical; conditions: average IC50, enzyme assay; read-out: BACE 1 FRET assay
In short: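 Acetate buffer (0.05 M, pH 4.2), 10% DMSO final, 100 uM nonionic detergent genapol. Substrate addition (50 nM FRET peptide) initiates; one-hour incubation; Tris raises pH to neutrality before fluorescence measurement.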

[4] = Homo sapiens, HEK293, average IC50
[5] = CSF, read-out: CSF A-beta reduction % at 10 mg/kg
[6] = brain, read-out: Brain A-beta reduction % at 10 mg/kg
[7] = Homo sapiens, HEK293, average IC50, HEK cells
[8] = CSF, read-out: CSF A-beta reduction % at 3 mpk
[9] = brain, read-out: Brain A-beta reduction % at 3 mpk

Beta Secretase enzyme (BACE), sequence (P56817 46-501, species assumed): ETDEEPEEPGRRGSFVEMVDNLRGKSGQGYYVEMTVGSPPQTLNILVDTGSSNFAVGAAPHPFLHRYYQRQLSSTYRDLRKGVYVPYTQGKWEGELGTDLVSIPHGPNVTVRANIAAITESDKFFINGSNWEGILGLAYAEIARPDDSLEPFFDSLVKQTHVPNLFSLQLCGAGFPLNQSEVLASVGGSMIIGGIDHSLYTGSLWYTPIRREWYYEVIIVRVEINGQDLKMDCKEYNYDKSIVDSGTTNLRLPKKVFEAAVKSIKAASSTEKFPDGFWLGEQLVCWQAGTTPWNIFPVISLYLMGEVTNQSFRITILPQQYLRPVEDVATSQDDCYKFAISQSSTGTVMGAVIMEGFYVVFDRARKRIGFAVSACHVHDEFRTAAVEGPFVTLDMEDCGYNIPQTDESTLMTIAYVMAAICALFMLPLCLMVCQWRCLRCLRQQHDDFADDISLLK

SMILES | IC50 [1, 4] [nM] | inhibition in vivo at 10 mg/kg [2, 5] [%] | inhibition in vivo at 10 mg/kg [2, 6] [%] | IC50 [3] [nM] | IC50 ([1]; average IC50, HEK cells) [nM] | IC50 [1, 7] [nM] | inhibition in vivo at 3 mg/kg [2, 8] [%] | inhibition in vivo at 3 mg/kg [2, 9] [%]
NC1=N[C@@]2(CS1)c1cc(-c3cccnc3F)ccc1Oc1c(F)cc(N3CCC(F)(F)CC3)cc12 [Example 1076, (S)-2′-(4,4-difluoropiperidin-1-yl)-4′-fluoro-7′-(2-fluoropyridin-3-yl)-5H-spiro[thiazole-4,9′-xanthen]-2-amine] | 14 | 63 | 33 | 0.4 |  |  |  | 
Cn1cc(-c2cc(F)c3c(c2)[C@]2(COC(N)=N2)c2cc(-c4ccc(F)nc4)ccc2O3)cn1 [Example 262, (S)-4′-fluoro-7′-(6-fluoropyridin-3-yl)-2′-(1-methyl-1H-pyrazol-4-yl)-5H-spiro[oxazole-4,9′-xanthen]-2-amine] | 12.6 | 36 | 11 | 3.3 |  |  |  | 
NC1=N[C@@]2(CS1)c1cc(-c3cccnc3F)ccc1Oc1c(F)cc(N3CCC(F)(F)C3)cc12 [Example 1077, (S)-2′-(3,3-difluoropyrrolidin-1-yl)-4′-fluoro-7′-(2-fluoropyridin-3-yl)-5H-spiro[thiazole-4,9′-xanthen]-2-amine] | 9 | 69 | 53 | 0.3 |  |  |  | 
Cc1cnc(-c2cc(F)c3c(c2)[C@]2(COC(N)=N2)c2cc(-c4cccnc4F)ccc2O3)nc1 [Example 226, (S)-4′-fluoro-7′-(2-fluoropyridin-3-yl)-2′-(5-methylpyrimidin-2-yl)-5H-spiro[oxazole-4,9′-xanthen]-2-amine] | 27.2 | 31 | 19 | 3.9 |  |  |  | 
NC1=N[C@@]2(CO1)c1cc(-c3cccnc3F)ccc1Oc1c(F)cc(N3CC4CCC(C3)O4)cc12 [Example 225, (4S)-2′-(8-oxa-3-azabicyclo[3.2.1]octan-3-yl)-4′-fluoro-7′-(2-fluoropyridin-3-yl)-5H-spiro[oxazole-4,9′-xanthen]-2-amine] | 1.6 | 64 | 47 | 0.3 |  |  |  | 
CC1(C#Cc2cc3c(nc2F)Oc2ccc(-c4cccnc4F)cc2[C@@]32COC(N)=N2)COC1 [Example 901, (5S)-2-fluoro-7-(2-fluoro-3-pyridinyl)-3-((3-methyl-3-oxetanyl)ethynyl)spiro[chromeno[2,3-b]pyridine-5,4′-[1,3]oxazol]-2′-amine] |  | 56 | 44 | 0.5 | 11 |  |  | 
NC1=N[C@@]2(CO1)c1cc(-c3cccnc3)ccc1Oc1c2cc(C2=CCCOC2)nc1F [Example 745, (5S)-3-(5,6-dihydro-2-H-pyran-3-yl)-1-fluoro-7-(3-pyridinyl)spiro[chromeno[2,3-c]pyridine-5-4′-[1,3]oxazol]-2′-amine] | 4 | 78 | 69 | 0.4 |  |  |  | 
Cc1ccc(-c2cc(F)c3c(c2)[C@]2(COC(N)=N2)c2cc(OCC(C)(C)C#N)ccc2O3)cn1 [Example 443, (S)-3-(2-amino-4′-fluoro-2′-(6-methylpyridin-3-yl)-5H-spiro[oxazole-4,9′-xanthene]-7′-yloxy)-2,2-dimethylpropanenitrile] |  | 35 | 7 | 5 |  | 11.6 |  | 
NC1=N[C@@]2(CO1)c1cc(-c3cccnc3F)c(F)cc1Oc1c(F)cc(N3CCOCC3)cc12 (single isomer, unassigned) [Example 869] |  | 61 | 44 | 0.5 |  | 10 |  | 
N#Cc1cccc(-c2ccc3c(c2)[C@@]2(COC(N)=N2)c2cc(N4CCOCC4)nc(F)c2O3)c1 [Example 894, 3-((5S)-2′-amino-1-fluoro-3-(4-morpholinyl)spiro[chromeno[2,3-c]pyridine-5,4′-[1,3]oxazol]-7-yl)benzonitrile] |  | 75 | 69 | 0.3 |  | 10 |  | 
CC1(C#Cc2cnc3c(c2)[C@]2(COC(N)=N2)c2cc(-c4cccc(Cl)c4F)ccc2O3)COC1 [Example 463, (S)-7-(3-chloro-2-fluorophenyl)-3-((3-methyloxetan-3-yl)ethynyl)-5′H-spiro[chromeno[2,3-b]pyridine-5,4′-oxazol]-2′-amine] |  | 30 | 9 | 0.8 |  | 14.3 |  | 
NC1=N[C@@]2(CS1)c1cc(-c3cccnc3F)ccc1Oc1c2cc(C2CCOCC2)nc1F [Example 1029, (S)-1-fluoro-7-(2-fluoropyridin-3-yl)-3-(tetrahydro-2H-pyran-4-yl)-5′H-spiro[chromeno[2,3-c]pyridine-5,4′-thiazol]-2′-amine] | 7 | 83 | 73 | 0.4 |  |  |  | 
CC1(C)C=C(c2cc3c(c(F)n2)Oc2ccc(-c4cccnc4F)cc2[C@@]32CSC(N)=N2)CCO1 [Example 1033, (S)-3-(6,6-dimethyl-3,6-dihydro-2H-pyran-4-yl)-1-fluoro-7-(2-fluoropyridin-3-yl)-5′H-spiro[chromeno[2,3-c]pyridine-5,4′-thiazol]-2′-amine] | 563 |  |  | 108 |  |  | 60 | 52
NC1=N[C@@]2(CS1)c1cc(-c3cccnc3F)ccc1Oc1c(F)cc(N3C[C@@H]4C[C@H]3CO4)cc12 [Example 1084, (S)-2′-((1S,4S)-2-oxa-5-azabicyclo[2.2.1]heptan-5-yl)-4′-fluoro-7′-(2-fluoropyridin-3-yl)-5H-spiro[thiazole-4,9′-xanthen]-2-amine] | 102 | 67 | 50 | 7.5 |  |  |  | 
NC1=N[C@@]2(CO1)c1cc(-c3cncc(F)c3)ccc1Oc1cnc(N3CCC(F)(F)CC3)cc12 [Example 414, (5S)-3-(4,4-difluoro-1-piperidinyl)-7-(5-fluoro-3-pyridinyl)spiro[chromeno[2,3-c]pyridine-5,4′-[1,3]oxazol]-2′-amine] |  | 64 | 44 | 1.5 |  | 13.6 |  | 
CC1(C)C=C(c2cc3c(cn2)Oc2ccc(-c4ccc(F)nc4)cc2[C@@]32COC(N)=N2)CCO1 [Example 369, (S)-3-(6,6-dimethyl-3,6-dihydro-2H-pyran-4-yl)-7-(6-fluoropyridin-3-yl)-5′H-spiro[chromeno[2,3-c]pyridine-5,4′-oxazol]-2′-amine] | 16.2 | 46 | 31 | 2.8 |  |  |  | 
CC1(C)C=C(c2cc3c(cn2)Oc2ccc(-c4cncc(F)c4)cc2[C@@]32COC(N)=N2)CCO1 [Example 135, (S)-3-(6,6-dimethyl-3,6-dihydro-2H-pyran-4-yl)-7-(5-fluoropyridin-3-yl)-5′H-spiro[chromeno[2,3-c]pyridine-5,4′-oxazol]-2′-amine] | 10 | 61 | 44 | 1.3 |  |  |  | 
NC1=N[C@@]2(CO1)c1cc(-c3c(F)ccnc3F)ccc1Oc1cnc(C3=CCCOC3)cc12 [Example 676, (5S)-7-(2,4-difluoro-3-pyridinyl)-3-(5,6-dihydro-2H-pyran-3-yl)spiro[chromeno[2,3-c]pyridine-5,4′-[1,3]oxazol]-2′-amine] |  |  |  | 0.6 |  | 6 | 76 | 74
